Data on 20 molecules can be found in PMC9851200, “Multiparameter phenotypic screening for endogenous TFEB and TFE3 translocation identifies novel chemical series modulating lysosome function” (Autophagy, 2022).

Where two headings read alike, the source gives them in different places.

The subject of series [1] is SH-SY5Y cells. Nature of the series: Nuclear count from microscopy images (cellular growth and toxicity). Also: reference of the scale not given here.
The test system of series [2] is SH-SY5Y cells. Nature of the series: AK (adenylate kinase) release ToxiLight cytotoxicity assay. Also: reference of the scale not given here.
Series [3] has as its system SH-SY5Y cells.
Excerpt: The PKIS2 Library was supplied by The Structural Genomics Consortium at the University of North Carolina at Chapel Hill.
Series [4] deals with endogenous TFEB. The series can be described thus: TFEB nuclear translocation, immunocytochemistry high-content imaging. The class given is cell-based.
For series [5], the system named is endogenous TFE3. Nature of the series: TFE3 nuclear translocation, immunocytochemistry high-content imaging. The format is cell-based.
[6] abbreviates: PKIS2 primary screening, DQ Red BSA intensity.
Where [7] appears, read: PKIS2 primary screening, DQ Red BSA spot count.
For DQ Intensity in this document: reference of the scale not given here.
For DQ Spot in this document: reference of the scale not given here.

In the case of `Cl.O=C(Nc1cccc(-c2nn3ncccc3c2-c2ccnc(Nc3cccnc3)n2)c1)c1c(F)cccc1F` [UNC10225440A], the “Nuclear Count” value in series [1] (PKIS2 primary screening) is 119.73. This molecule also registered an AK in series [2] (PKIS2 primary screening) of 101.41. Further, in series [3] (PKIS2 primary screening), the “DQ Intensity” value is 138.59 and the “DQ Spot” value came out at 122.41. The TFEB % in series [4] (PKIS2 primary screening) is reported as 7.43%. The TFE3 % in series [5] (PKIS2 primary screening) worked out at 9.74%.

As to `Oc1cc(Nc2ccnc3cc(I)ccc23)ccc1F` [UNC10225441A], the “Nuclear Count” value in series [1] (PKIS2 primary screening) is listed as 104.34. Moreover, the AK in series [2] (PKIS2 primary screening) is given as 73.72. The “DQ Intensity” value in series [3] (setting [6]) worked out at 124.88. Also, the “DQ Spot” value in series [3] (setting [7]) was determined as 110.03. In series [4] (PKIS2 primary screening), this molecule displayed a TFEB % of 12.97%. This molecule registered a TFE3 % in series [5] (PKIS2 primary screening) of 8.03%.

Turning to `CN1CCC(n2cnc(-c3ccc(F)cc3)c2-c2ccnc(NC3CCNCC3)n2)CC1` [UNC10225443A], the “Nuclear Count” value in series [1] (PKIS2 primary screening) is 105.97. This molecule also had an AK in series [2] (PKIS2 primary screening) of 75.10. Also, in series [3] (PKIS2 primary screening), the “DQ Intensity” value is listed as 104.65 and the “DQ Spot” value came out at 93.05. Moreover, the TFEB % in series [4] (PKIS2 primary screening) is 5.73%. The TFE3 % in series [5] (PKIS2 primary screening) is 14.45%.

Consider `COc1ccc(NC(=O)Nc2ccc(C)c(-c3ccc(C(=O)Nc4ccncc4)cc3)c2)cc1` [UNC10225445A], for which the “Nuclear Count” value in series [1] (PKIS2 primary screening) is recorded as 96.32. Besides, in series [2] (PKIS2 primary screening), the AK is 81.64. In series [3] (PKIS2 primary screening), the “DQ Intensity” value is 64.07 and the “DQ Spot” value worked out at 80.56. In series [4] (PKIS2 primary screening), the TFEB % was determined as 6.73%. In series [5] (PKIS2 primary screening), the TFE3 % was determined as 17.87%.

On to `Cc1n[nH]c2ccc(-c3cc(OC[C@@H](N)Cc4ccccc4)cnc3-c3ccoc3)cc12.O=C(O)C(F)(F)F.O=C(O)C(F)(F)F` [UNC10225447A], for which the “Nuclear Count” value in series [1] (PKIS2 primary screening) stood at 74.49. Further, the AK in series [2] (PKIS2 primary screening) is 97.39. In series [3] (PKIS2 primary screening), the “DQ Intensity” value is on record as 66.58 and the “DQ Spot” value is 65.23. In series [4] (PKIS2 primary screening), the TFEB % amounted to 5.41%. The molecule also yielded a TFE3 % in series [5] (PKIS2 primary screening) of 18.99%.

With `COc1cc2ncn(-c3cc(OCCCc4ccccc4)c(C(N)=O)s3)c2cc1OC` [UNC10225450A], the “Nuclear Count” value in series [1] (PKIS2 primary screening) turned out to be 118.22. Further, the AK in series [2] (PKIS2 primary screening) came to 94.56. In addition, in series [3] (PKIS2 primary screening), the “DQ Intensity” value was found to be 116.92 and the “DQ Spot” value came out at 123.73. This molecule also had a TFEB % in series [4] (PKIS2 primary screening) of 3.13%. The same molecule displayed a TFE3 % in series [5] (PKIS2 primary screening) of 11.96%.

On to `O=C(O)C(F)(F)F.O=c1[nH]ccc2nc(N[C@@H]3CCNC3)nc(Nc3ccc4c(c3)S(=O)(=O)CC4)c12` [UNC10225451A], for which the “Nuclear Count” value in series [1] (PKIS2 primary screening) is reported as 98.38. Also, the AK in series [2] (PKIS2 primary screening) is recorded as 185.61. Moreover, in series [3] (PKIS2 primary screening), the “DQ Intensity” value was found to be 83.68 and the “DQ Spot” value turned out to be 100.25. The same molecule had a TFEB % in series [4] (PKIS2 primary screening) of 7.05%. In series [5] (PKIS2 primary screening), the TFE3 % amounted to 16.36%.

`CN(C)CCNS(=O)(=O)c1ccc(-c2ccnc3[nH]ccc23)cc1` [UNC10225452A]: the “Nuclear Count” value in series [1] (PKIS2 primary screening) was 78.72. Also, the AK in series [2] (PKIS2 primary screening) was determined as 114.11. The “DQ Intensity” value in series [3] (setting [6]) was determined as 125.57. Also, the “DQ Spot” value in series [3] (setting [7]) stood at 113.31. Besides, in series [4] (PKIS2 primary screening), the TFEB % is given as 4.89%. The same molecule displayed a TFE3 % in series [5] (PKIS2 primary screening) of 16.94%.

Take `COc1cccc(-n2cnc3c(N)ncnc32)c1` [UNC10225454A]: the “Nuclear Count” value in series [1] (PKIS2 primary screening) is given as 128.34. In series [2] (PKIS2 primary screening), this molecule showed an AK of 83.60. Besides, in series [3] (PKIS2 primary screening), the “DQ Intensity” value amounted to 95.23 and the “DQ Spot” value was found to be 104.69. Further, the TFEB % in series [4] (PKIS2 primary screening) turned out to be 7.17%. The same molecule showed a TFE3 % in series [5] (PKIS2 primary screening) of 8.30%.

In the case of `CCN(CC)CCOc1ccc(Nc2ncc3cc(-c4c(Cl)cccc4Cl)c(=O)n(C)c3n2)cc1` [UNC10225459A], in series [1] (PKIS2 primary screen), the “Nuclear Count” value is given as 26.96. Further, the AK in series [2] (PKIS2 primary screen) is listed as 131.29. In addition, the “DQ Intensity” value in series [3] (PKIS2 primary screen, DQ Red BSA intensity) is listed as 115.72. Further, the “DQ Spot” value in series [3] (PKIS2 primary screen, DQ Red BSA spot count) stood at 64.83. In series [4] (PKIS2 primary screen), this molecule came in with a TFEB % of 22.54%. In addition, in series [5] (PKIS2 primary screen), the TFE3 % came to 18.27%.

Consider `CCn1c(-c2nonc2N)nc2c(C#CC(C)(C)O)nc(OCCN)cc21.Cl.Cl` [UNC10225460A], for which the “Nuclear Count” value in series [1] (PKIS2 primary screening) is reported as 55.94. In series [2] (PKIS2 primary screening), this molecule had an AK of 78.09. Besides, in series [3] (PKIS2 primary screening), the “DQ Intensity” value is recorded as 74.51 and the “DQ Spot” value came to 103.98. Moreover, the TFEB % in series [4] (PKIS2 primary screening) was found to be 9.06%. The molecule also had a TFE3 % in series [5] (PKIS2 primary screening) of 15.40%.

`O=S(=O)(c1ccc(-c2ccnc3[nH]ccc23)cc1)N1CCCC1` [UNC10225462A]: the “Nuclear Count” value in series [1] (PKIS2 primary screening) worked out at 103.12. For the same molecule, the AK in series [2] (PKIS2 primary screening) is recorded as 140.08. In series [3] (setting [6]), the “DQ Intensity” value stood at 72.77. For the same molecule, the “DQ Spot” value in series [3] (setting [7]) worked out at 93.44. For the same molecule, the TFEB % in series [4] (PKIS2 primary screening) worked out at 5.43%. Moreover, the TFE3 % in series [5] (PKIS2 primary screening) is on record as 10.23%.

Regarding `Cl.Cl.c1ccc(-c2cc3ccncc3cc2OC2CCNCC2)cc1` [UNC10225463A], the “Nuclear Count” value in series [1] (PKIS2 primary screening) turned out to be 112.69. In series [2] (PKIS2 primary screening), the AK is reported as 97.09. Further, in series [3] (PKIS2 primary screening), the “DQ Intensity” value amounted to 117.87 and the “DQ Spot” value turned out to be 77.04. The same molecule showed a TFEB % in series [4] (PKIS2 primary screening) of 5.07%. This molecule displayed a TFE3 % in series [5] (PKIS2 primary screening) of 49.72%.

Turning to `Cl.Cl.NCC(NC(=O)c1cc(-c2ccccc2)c(-c2ccnc3[nH]ccc23)s1)c1ccccc1` (stereo not drawn) [UNC10225466A], the “Nuclear Count” value in series [1] (PKIS2 primary screening) was 129.43. Also, the AK in series [2] (PKIS2 primary screening) worked out at 133.16. For the same molecule, the “DQ Intensity” value in series [3] (setting [6]) is 104.29. Further, the “DQ Spot” value in series [3] (setting [7]) is reported as 96.16. The molecule further had a TFEB % in series [4] (PKIS2 primary screening) of 5.04%. In addition, the TFE3 % in series [5] (PKIS2 primary screening) is 18.77%.

As to `Cl.Cl.NCC(NCc1ccc(-c2ccnc3[nH]ccc23)s1)c1ccccc1` (stereo not drawn) [UNC10225471A], in series [1] (PKIS2 primary screening), the “Nuclear Count” value was found to be 123.37. This molecule had an AK in series [2] (PKIS2 primary screening) of 98.53. Moreover, the “DQ Intensity” value in series [3] (setting [6]) is 100.58. Further, the “DQ Spot” value in series [3] (setting [7]) is 94.95. For the same molecule, the TFEB % in series [4] (PKIS2 primary screening) came out at 4.03%. In series [5] (PKIS2 primary screening), this molecule registered a TFE3 % of 13.41%.

For the molecule `CN(C(=O)c1ccc(-c2cc(-c3c[nH]nc3-c3ccccn3)ccn2)cc1)C1CCOCC1` [UNC10225473A], the “Nuclear Count” value in series [1] (PKIS2 primary screening) is reported as 84.56. In series [2] (PKIS2 primary screening), the AK worked out at 101.87. The “DQ Intensity” value in series [3] (setting [6]) was 126.52. Also, the “DQ Spot” value in series [3] (setting [7]) was 117.08. The same molecule yielded a TFEB % in series [4] (PKIS2 primary screening) of 8.39%. Besides, the TFE3 % in series [5] (PKIS2 primary screening) came out at 13.07%.

On to `CCn1c(-c2ccoc2)nc2cnccc21` [UNC10225474A], for which, in series [1] (PKIS2 primary screening), the “Nuclear Count” value turned out to be 101.97. Further, the AK in series [2] (PKIS2 primary screening) was 125.64. In series [3] (PKIS2 primary screening), the “DQ Intensity” value was 148.88 and the “DQ Spot” value was determined as 113.44. For the same molecule, the TFEB % in series [4] (PKIS2 primary screening) is recorded as 2.97%. In addition, in series [5] (PKIS2 primary screening), the TFE3 % worked out at 9.12%.

`COc1ccc(NC(=O)c2ccc(-c3cc(-c4nnc(C)o4)ccc3C)cc2)cc1` [UNC10225475A]: the “Nuclear Count” value in series [1] (PKIS2 primary screening) stood at 99.11. The molecule further showed an AK in series [2] (PKIS2 primary screening) of 97.70. In addition, in series [3] (PKIS2 primary screening), the “DQ Intensity” value was found to be 95.33 and the “DQ Spot” value turned out to be 98.26. The TFEB % in series [4] (PKIS2 primary screening) amounted to 3.99%. Further, in series [5] (PKIS2 primary screening), the TFE3 % is reported as 13.72%.

On to `Cn1cc(-c2ccc3c(c2)CCN3C(=O)Cc2cc(F)cc(C(F)(F)F)c2)c2c(N)ncnc21` [UNC10225478A], for which the “Nuclear Count” value in series [1] (PKIS2 primary screening) is 95.63. Also, the AK in series [2] (PKIS2 primary screening) is listed as 72.42. Further, in series [3] (PKIS2 primary screening), the “DQ Intensity” value was 103.20 and the “DQ Spot” value amounted to 103.08. In series [4] (PKIS2 primary screening), this molecule returned a TFEB % of 5.80%. The same molecule gave a TFE3 % in series [5] (PKIS2 primary screening) of 18.35%.

Consider `CC(=O)N1CCN(c2ccc(Nc3nccc(-c4sc(C(C)C)nc4-c4cccc(NS(=O)(=O)c5cccc(Cl)c5)c4)n3)cn2)CC1` [UNC10225481A], for which the “Nuclear Count” value in series [1] (PKIS2 primary screening) is 128.41. The molecule also gave an AK in series [2] (PKIS2 primary screening) of 73.54. For the same molecule, in series [3] (PKIS2 primary screening), the “DQ Intensity” value stood at 100.90 and the “DQ Spot” value is recorded as 115.22. For the same molecule, in series [4] (PKIS2 primary screening), the TFEB % stood at 3.72%. This molecule yielded a TFE3 % in series [5] (PKIS2 primary screening) of 9.55%.
